The structures appear in SMILES notation.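 Values below derive from 48-hour exposures of cells grown in 96-well plates, with endpoints linearly interpolated between the two concentrations bracketing the appropriate inhibition level. TGI: concentration producing complete growth inhibition.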

One experiment relates to MOLT-4 leukemia. In words: NCI-60 cell line screen, 48 h.
Take `C[C@@H](NC(=O)[C@@H]1C[C@]1(C)COC(=O)c1cc([N+](=O)[O-])cc([N+](=O)[O-])c1)c1cccc2ccccc12`: the TGI was greater than 100 µM.
On the same count and under the same terms, with `COC(=O)c1cc(=O)nc2sc3cccc(C)c3n12` the figure was greater than 100 µM.

The test system of a further experiment is 786-0 renal. In words: NCI-60 cell line screen, 48 h.
For `CCCCCCCCCCCCCCNC(=O)CCC(NC(=O)c1ccc(N(C)Cc2cnc3nc(N)nc(N)c3n2)cc1)C(=O)NCCCCCCCCCCCCCC` (stereo unspecified), the TGI was determined as 52.1 µM.
Same read-out and setting: to `C[C@@H](NC(=O)[C@@H]1C[C@]1(C)COC(=O)c1cc([N+](=O)[O-])cc([N+](=O)[O-])c1)c1cccc2ccccc12` belongs greater than 100 µM.
Still for that read-out and setting: to `COC(=O)c1cc(=O)nc2sc3cccc(C)c3n12` belongs 47.3 µM; to `O=c1[nH]c(Nc2cccc(CC(F)(F)F)c2)nc2nc[nH]c12`, greater than 100 µM.

The test system of another experiment is NCI/ADR-RES ovarian. Description: NCI-60 cell line screen, 48 h.
Molecule `CCCCCCCCCCCCCCNC(=O)CCC(NC(=O)c1ccc(N(C)Cc2cnc3nc(N)nc(N)c3n2)cc1)C(=O)NCCCCCCCCCCCCCC` (stereo unspecified) displayed a TGI greater than 100 µM.
Same read-out and setting: with `C[C@@H](NC(=O)[C@@H]1C[C@]1(C)COC(=O)c1cc([N+](=O)[O-])cc([N+](=O)[O-])c1)c1cccc2ccccc12` the figure was greater than 100 µM; with `COC(=O)c1cc(=O)nc2sc3cccc(C)c3n12`, greater than 100 µM.
The same measure, in the same setting: with `O=c1[nH]c(Nc2cccc(CC(F)(F)F)c2)nc2nc[nH]c12` the figure was greater than 100 µM.

A further experiment relates to UACC-62 melanoma. In words: NCI-60 cell line screen, 48 h.
`CCCCCCCCCCCCCCNC(=O)CCC(NC(=O)c1ccc(N(C)Cc2cnc3nc(N)nc(N)c3n2)cc1)C(=O)NCCCCCCCCCCCCCC` (stereo unspecified) displayed a TGI of 22.2 µM.
On the same count and under the same terms, with `C[C@@H](NC(=O)[C@@H]1C[C@]1(C)COC(=O)c1cc([N+](=O)[O-])cc([N+](=O)[O-])c1)c1cccc2ccccc12` the figure was greater than 100 µM; with `COC(=O)c1cc(=O)nc2sc3cccc(C)c3n12`, greater than 100 µM; with `O=c1[nH]c(Nc2cccc(CC(F)(F)F)c2)nc2nc[nH]c12`, greater than 100 µM.

The test system of another experiment is NCI-H460 lung. In words: NCI-60 cell line screen, 48 h.
Take `CCCCCCCCCCCCCCNC(=O)CCC(NC(=O)c1ccc(N(C)Cc2cnc3nc(N)nc(N)c3n2)cc1)C(=O)NCCCCCCCCCCCCCC` (stereo unspecified): the TGI is 13.1 µM.
The same measure, in the same setting: to `C[C@@H](NC(=O)[C@@H]1C[C@]1(C)COC(=O)c1cc([N+](=O)[O-])cc([N+](=O)[O-])c1)c1cccc2ccccc12` belongs greater than 100 µM; to `COC(=O)c1cc(=O)nc2sc3cccc(C)c3n12`, greater than 100 µM.
The same measure, in the same setting: to `O=c1[nH]c(Nc2cccc(CC(F)(F)F)c2)nc2nc[nH]c12` belongs greater than 100 µM.

The next experiment deals with OVCAR-8 ovarian. In words: NCI-60 cell line screen, 48 h.
Take `CCCCCCCCCCCCCCNC(=O)CCC(NC(=O)c1ccc(N(C)Cc2cnc3nc(N)nc(N)c3n2)cc1)C(=O)NCCCCCCCCCCCCCC` (stereo unspecified): the TGI is 39.8 µM.
On the same count and under the same terms, with `C[C@@H](NC(=O)[C@@H]1C[C@]1(C)COC(=O)c1cc([N+](=O)[O-])cc([N+](=O)[O-])c1)c1cccc2ccccc12` the figure was greater than 100 µM.
The same measure, in the same setting: to `COC(=O)c1cc(=O)nc2sc3cccc(C)c3n12` belongs 49.2 µM; to `O=c1[nH]c(Nc2cccc(CC(F)(F)F)c2)nc2nc[nH]c12`, greater than 100 µM.

The test system of the next experiment is LOX IMVI melanoma. In words: NCI-60 cell line screen, 48 h.
Turning to `CCCCCCCCCCCCCCNC(=O)CCC(NC(=O)c1ccc(N(C)Cc2cnc3nc(N)nc(N)c3n2)cc1)C(=O)NCCCCCCCCCCCCCC` (stereo unspecified), the TGI was greater than 100 µM.
The molecule `C[C@@H](NC(=O)[C@@H]1C[C@]1(C)COC(=O)c1cc([N+](=O)[O-])cc([N+](=O)[O-])c1)c1cccc2ccccc12` came in with a TGI greater than 100 µM.
The same measure, in the same setting: with `COC(=O)c1cc(=O)nc2sc3cccc(C)c3n12` the figure was 33.8 µM; with `O=c1[nH]c(Nc2cccc(CC(F)(F)F)c2)nc2nc[nH]c12`, greater than 100 µM.

A further experiment deals with SK-OV-3 ovarian. Description: NCI-60 cell line screen, 48 h.
In the case of `CCCCCCCCCCCCCCNC(=O)CCC(NC(=O)c1ccc(N(C)Cc2cnc3nc(N)nc(N)c3n2)cc1)C(=O)NCCCCCCCCCCCCCC` (stereo unspecified), the TGI worked out at 28.3 µM.
`C[C@@H](NC(=O)[C@@H]1C[C@]1(C)COC(=O)c1cc([N+](=O)[O-])cc([N+](=O)[O-])c1)c1cccc2ccccc12` had a TGI greater than 100 µM.
On the same count and under the same terms, to `COC(=O)c1cc(=O)nc2sc3cccc(C)c3n12` belongs greater than 100 µM; to `O=c1[nH]c(Nc2cccc(CC(F)(F)F)c2)nc2nc[nH]c12`, greater than 100 µM.

In the next experiment the test system is COLO 205 colon. In words: NCI-60 cell line screen, 48 h.
`CCCCCCCCCCCCCCNC(=O)CCC(NC(=O)c1ccc(N(C)Cc2cnc3nc(N)nc(N)c3n2)cc1)C(=O)NCCCCCCCCCCCCCC` (stereo unspecified) displayed a TGI greater than 62.9 µM.
`C[C@@H](NC(=O)[C@@H]1C[C@]1(C)COC(=O)c1cc([N+](=O)[O-])cc([N+](=O)[O-])c1)c1cccc2ccccc12`: the TGI was greater than 100 µM.
Regarding `COC(=O)c1cc(=O)nc2sc3cccc(C)c3n12`, the TGI amounted to 29.8 µM.
Still for that read-out and setting: to `O=c1[nH]c(Nc2cccc(CC(F)(F)F)c2)nc2nc[nH]c12` belongs greater than 100 µM.

The subject of the next experiment is SN12C renal. In words: NCI-60 cell line screen, 48 h.
For the molecule `CCCCCCCCCCCCCCNC(=O)CCC(NC(=O)c1ccc(N(C)Cc2cnc3nc(N)nc(N)c3n2)cc1)C(=O)NCCCCCCCCCCCCCC` (stereo unspecified), the TGI was found to be 33.8 µM.
Take `C[C@@H](NC(=O)[C@@H]1C[C@]1(C)COC(=O)c1cc([N+](=O)[O-])cc([N+](=O)[O-])c1)c1cccc2ccccc12`: the TGI was greater than 100 µM.
The same measure, in the same setting: with `COC(=O)c1cc(=O)nc2sc3cccc(C)c3n12` the figure was greater than 100 µM; with `O=c1[nH]c(Nc2cccc(CC(F)(F)F)c2)nc2nc[nH]c12`, greater than 100 µM.

The subject of a further experiment is NCI-H522 lung. Description: NCI-60 cell line screen, 48 h.
Consider `CCCCCCCCCCCCCCNC(=O)CCC(NC(=O)c1ccc(N(C)Cc2cnc3nc(N)nc(N)c3n2)cc1)C(=O)NCCCCCCCCCCCCCC` (stereo unspecified), for which the TGI is 32.4 µM.
Same read-out and setting: with `COC(=O)c1cc(=O)nc2sc3cccc(C)c3n12` the figure was 48.3 µM.
On the same count and under the same terms, to `O=c1[nH]c(Nc2cccc(CC(F)(F)F)c2)nc2nc[nH]c12` belongs greater than 100 µM.

In another experiment the test system is KM12 colon. In words: NCI-60 cell line screen, 48 h.
Turning to `CCCCCCCCCCCCCCNC(=O)CCC(NC(=O)c1ccc(N(C)Cc2cnc3nc(N)nc(N)c3n2)cc1)C(=O)NCCCCCCCCCCCCCC` (stereo unspecified), the TGI amounted to 18 µM.
Same read-out and setting: with `C[C@@H](NC(=O)[C@@H]1C[C@]1(C)COC(=O)c1cc([N+](=O)[O-])cc([N+](=O)[O-])c1)c1cccc2ccccc12` the figure was greater than 100 µM.
As for `COC(=O)c1cc(=O)nc2sc3cccc(C)c3n12`, the TGI was greater than 100 µM.
Still for that read-out and setting: to `O=c1[nH]c(Nc2cccc(CC(F)(F)F)c2)nc2nc[nH]c12` belongs greater than 100 µM.

The subject of another experiment is MCF7 breast. Description: NCI-60 cell line screen, 48 h.
In turn, `CCCCCCCCCCCCCCNC(=O)CCC(NC(=O)c1ccc(N(C)Cc2cnc3nc(N)nc(N)c3n2)cc1)C(=O)NCCCCCCCCCCCCCC` (stereo unspecified) registered a TGI of 29.2 µM.
On the same count and under the same terms, with `C[C@@H](NC(=O)[C@@H]1C[C@]1(C)COC(=O)c1cc([N+](=O)[O-])cc([N+](=O)[O-])c1)c1cccc2ccccc12` the figure was greater than 100 µM; with `COC(=O)c1cc(=O)nc2sc3cccc(C)c3n12`, greater than 100 µM; with `O=c1[nH]c(Nc2cccc(CC(F)(F)F)c2)nc2nc[nH]c12`, greater than 100 µM.

In another experiment the test system is HCT-15 colon. In words: NCI-60 cell line screen, 48 h.
`CCCCCCCCCCCCCCNC(=O)CCC(NC(=O)c1ccc(N(C)Cc2cnc3nc(N)nc(N)c3n2)cc1)C(=O)NCCCCCCCCCCCCCC` (stereo unspecified) gave a TGI of 28.2 µM.
`C[C@@H](NC(=O)[C@@H]1C[C@]1(C)COC(=O)c1cc([N+](=O)[O-])cc([N+](=O)[O-])c1)c1cccc2ccccc12` gave a TGI greater than 100 µM.
The molecule `COC(=O)c1cc(=O)nc2sc3cccc(C)c3n12` gave a TGI greater than 100 µM.
Still for that read-out and setting: to `O=c1[nH]c(Nc2cccc(CC(F)(F)F)c2)nc2nc[nH]c12` belongs greater than 100 µM.

In another experiment the test system is EKVX NSCLC. Description: NCI-60 cell line screen, 48 h.
Molecule `CCCCCCCCCCCCCCNC(=O)CCC(NC(=O)c1ccc(N(C)Cc2cnc3nc(N)nc(N)c3n2)cc1)C(=O)NCCCCCCCCCCCCCC` (stereo unspecified) gave a TGI greater than 100 µM.
The same measure, in the same setting: with `C[C@@H](NC(=O)[C@@H]1C[C@]1(C)COC(=O)c1cc([N+](=O)[O-])cc([N+](=O)[O-])c1)c1cccc2ccccc12` the figure was greater than 100 µM; with `COC(=O)c1cc(=O)nc2sc3cccc(C)c3n12`, greater than 100 µM.

The values are drawn from PubChem BioAssay (NCI).
